Results published in patent publication US20240041028A1, “DELIVERY SYSTEM FOR PLANT PROTECTION” (Omya International AG, priority 2021, published 2024).

Test system: Botrytis cinerea strain SAS 56
Assay: Efficacy of pyrimethanil tablets against Botrytis on tomato fruits
Format: in vivo
Settings: 6 days after inoculation (6 dpi); active applied one day prior to inoculation, 80 μl per hole
Text: • Tablets loaded with pyrimethanil (sample V3.3, 2.1 wt.-%, prepared according to Example 4) • Hydromagnesite tablets unloaded • Fungicide Espiro SC, commercially available from Omya Agro • Pure pyrimethanil powder, commercially available from Pluorochem Ltd • Five plastic trays with lids • Screwdriver • Eppendorf Pipette […] • Tomato fruits (calibration 47-57 mm) • Inoculum: Spore suspension of Botrytis cinerea strain SAS 56 (3×10^5 spores/ml), commercially available from DSMZ collection.
• Treatment 1: Untreated check. • Treatment 2: Tablets loaded with pyrimethanil (sample V3.3, 2.1 wt.-%, prepared according to Example 4) (0.03 gr active/tablet). • Treatment 3: Unloaded hydromagnesite tablet. • Treatment 4: Fungicide Espiro (appl. rate 0.125% (v/v based on the total amount of prepared treatment solution (solution amount: 50 ml, see below), resulting in pyrimethanil active 400 gr/1). • Treatment 5: Pure pyrimethanil active diluted in ethanol of 99% purity.
• Treatment 1: Only inoculum applied • Treatment 2: In 50 ml of water 1 tablet was dissolved. […]
Three days after the inoculation the first symptoms in the untreated check were detected. […]

## Cc1cc(C)nc(Nc2ccccc2)n1 [Pyrimethanil]
  Botrytis spore germination / mycelium growth on tomato fruits: no mycelium was produced
